Values of other authors in patent US9475888B2, “Non anti-coagulative glycosaminoglycans comprising repeating disaccharide unit and their medical use” (DILAFOR AB, priority 2011, dated 2016).

How the values were obtained:
[1] = tested on: uterus; details: Acta Obstetricia et Gynecologica, 2010; 89:147-150
[2] = tested on: protracted labor; details: women receiving prophylaxis for deep venous thrombosis
[3] = species not specified

Substance | contractility of the uterus [1] | protracted labor [2] | corresponding bioavailability (subcutaneous) [3]
dalteparin | increase | decrease | 
Heparin |  |  | about 10%
